Results from patent US20240246967A1, “AXL COMPOUNDS” (ARCUS BIOSCIENCES, INC., priority 2021, published 2024).

biological target: T1, Axl (Homo sapiens, UniProt P30530); assay: HTRF KinEASE-TK biochemical potency assay, AXL; set-up: purchased Invitrogen; settings: 5 nM AXL, 700 μM ATP, 800 nM TK Substrate-biotin
T1 sequence (P30530 26-894): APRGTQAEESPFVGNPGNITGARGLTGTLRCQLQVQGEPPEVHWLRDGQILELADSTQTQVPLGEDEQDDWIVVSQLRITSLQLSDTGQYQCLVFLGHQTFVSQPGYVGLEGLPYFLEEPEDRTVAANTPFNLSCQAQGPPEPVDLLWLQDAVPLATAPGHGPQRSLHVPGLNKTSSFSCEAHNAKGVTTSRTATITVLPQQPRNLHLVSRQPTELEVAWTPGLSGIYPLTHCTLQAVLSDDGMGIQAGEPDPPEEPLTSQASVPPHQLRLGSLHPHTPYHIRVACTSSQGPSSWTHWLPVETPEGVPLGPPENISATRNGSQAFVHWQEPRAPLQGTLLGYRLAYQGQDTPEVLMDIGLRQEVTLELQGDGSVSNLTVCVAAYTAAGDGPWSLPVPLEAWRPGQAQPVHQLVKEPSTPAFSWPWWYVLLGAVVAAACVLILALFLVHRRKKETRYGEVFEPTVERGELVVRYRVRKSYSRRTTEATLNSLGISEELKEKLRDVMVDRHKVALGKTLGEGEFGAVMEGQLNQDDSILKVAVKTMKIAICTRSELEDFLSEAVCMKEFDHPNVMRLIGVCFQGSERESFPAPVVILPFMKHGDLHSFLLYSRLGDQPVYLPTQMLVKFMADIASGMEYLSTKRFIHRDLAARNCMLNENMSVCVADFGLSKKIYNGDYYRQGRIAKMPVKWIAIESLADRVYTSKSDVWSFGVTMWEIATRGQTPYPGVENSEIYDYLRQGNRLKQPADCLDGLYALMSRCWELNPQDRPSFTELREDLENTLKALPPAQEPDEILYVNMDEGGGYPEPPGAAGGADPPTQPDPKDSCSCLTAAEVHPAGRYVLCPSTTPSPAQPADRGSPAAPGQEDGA
In short: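 Enzyme (final 5 nM AXL; 1 nM TYRO3 or MER) plus compound, 1 h RT → add biotinylated TK substrate (800 nM final) and ATP (700 μM final) → 2 h RT → stop into HTRF detection mix → read 665/620 nm. Activity normalised to DMSO and pre-stopped blanks.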

SMILES | IC50 [nM]
C[C@@H]1CCCN1C1(C)CCc2ccc(-c3cnc4[nH]nc(-c5ccc(S(=O)(=O)C6CCCC6)cc5)c4c3)cc2CC1 (stereo partly drawn) [Example 45, 3-(4-(Cyclopentylsulfonyl)phenyl)-5-(7-methyl-7-((R)-2-methylpyrrolidin-1-yl)-6,7,8,9-tetrahydro-5H-benzo[7]annulen-2-yl)-1H-pyrazolo[3,4-b]pyridine] | < 100
C[C@@H]1CCCN1C1(C)CCc2ccc(-c3cnc4[nH]nc(-c5ccc(S(=O)(=O)C6CCC6)cc5)c4c3)cc2CC1 (stereo partly drawn) [Example 46, 3-(4-(Cyclobutylsulfonyl)phenyl)-5-(7-methyl-7-((R)-2-methylpyrrolidin-1-yl)-6,7,8,9-tetrahydro-5H-benzo[7]annulen-2-yl)-1H-pyrazolo[3,4-b]pyridine] | < 100
Cc1cc(-c2n[nH]c3ncc(-c4ccc5c(c4)CCC(N4CCCC4)CC5)cc23)ccc1C(=O)N1CCNCC1 (centres unmarked) [Example 47, 1-(2-Methyl-4-{5-[7-(pyrrolidin-1-yl)-6,7,8,9-tetrahydro-5H-benzo[7]annulen-2-yl]-1H-pyrazolo[3,4-b]pyridin-3-yl}benzoyl)piperazine] | < 100
Cc1cc(-c2n[nH]c3ncc(-c4ccc5c(c4)CCN(C(=O)C(C)C)CC5)cc23)ccc1C(=O)N1CCNCC1 [Example 48, 2-Methyl-1-(7-{3-[3-methyl-4-(piperazine-1-carbonyl)phenyl]-1H-pyrazolo[3,4-b]pyridin-5-yl}-2,3,4,5-tetrahydro-1H-3-benzazepin-3-yl)propan-1-one] | < 100
Cc1cc(-c2n[nH]c3ncc(-c4ccc5c(c4)CC[C@@H](N4CCCC4)CC5)cc23)cc(C)c1C(N)=O [Example 49, 2,6-Dimethyl-4-{5-[(7S)-7-(pyrrolidin-1-yl)-6,7,8,9-tetrahydro-5H-benzo[7]annulen-2-yl]-1H-pyrazolo[3,4-b]pyridin-3-yl}benzamide] | < 100
Cc1cc(-c2n[nH]c3ncc(-c4ccc5c(c4)CC[C@@H](N4CCCC4)CC5)cc23)cc(Cl)c1C(N)=O [Example 50, 2-Chloro-6-methyl-4-{5-[(7S)-7-(pyrrolidin-1-yl)-6,7,8,9-tetrahydro-5H-benzo[7]annulen-2-yl]-1H-pyrazolo[3,4-b]pyridin-3-yl}benzamide] | < 100
C[C@@H]1CCCN1C1(C)CCc2ccc(-c3cnc4[nH]nc(-c5ccc(C(N)=O)c(F)c5)c4c3)cc2CC1 (stereo partly drawn) [Example 52, 2-Fluoro-4-(5-(7-methyl-7-((R)-2-methylpyrrolidin-1-yl)-6,7,8,9-tetrahydro-5H-benzo[7]annulen-2-yl)-1H-pyrazolo[3,4-b]pyridin-3-yl)benzamide] | < 100
COc1cc(-c2n[nH]c3ncc(-c4ccc5c(c4)CCC(C)(N4CCC[C@H]4C)CC5)cc23)ccc1C(N)=O (stereo partly drawn) [Example 53, 2-Methoxy-4-(5-(7-methyl-7-((R)-2-methylpyrrolidin-1-yl)-6,7,8,9-tetrahydro-5H-benzo[7]annulen-2-yl)-1H-pyrazolo[3,4-b]pyridin-3-yl)benzamide] | < 100
C[C@@H]1CCCN1C1(C)CCc2ccc(-c3cnc4[nH]nc(-c5ccc(C(N)=O)cc5)c4c3)cc2CC1 (stereo partly drawn) [Example 54, 4-(5-(7-Methyl-7-((R)-2-methylpyrrolidin-1-yl)-6,7,8,9-tetrahydro-5H-benzo[7]annulen-2-yl)-1H-pyrazolo[3,4-b]pyridin-3-yl)benzamide] | < 100
Cc1cc(-c2n[nH]c3ncc(-c4ccc5c(c4)CC[C@@H](N4CCCC4)CC5)cc23)cc(C)c1C(=O)N1CCNCC1 [Example 55, 1-(2,6-Dimethyl-4-{5-[(7S)-7-(pyrrolidin-1-yl)-6,7,8,9-tetrahydro-5H-benzo[7]annulen-2-yl]-1H-pyrazolo[3,4-b]pyridin-3-yl}benzoyl)piperazine] | < 100
Cc1cc(-c2n[nH]c3ncc(-c4ccc5c(c4)CC[C@@H](N4CCCC4)CC5)cc23)cc(Cl)c1C(=O)N1CCNCC1 [Example 56, 1-(2-Chloro-6-methyl-4-{5-[(7S)-7-(pyrrolidin-1-yl)-6,7,8,9-tetrahydro-5H-benzo[7]annulen-2-yl]-1H-pyrazolo[3,4-b]pyridin-3-yl}benzoyl)piperazine] | < 100
C[C@@H]1CCCN1C1(C)CCc2ccc(-c3cnc4[nH]nc(-c5ccc(C(C)(C)O)c(Cl)c5)c4c3)cc2CC1 (stereo partly drawn) [Example 57, 2-[2-Chloro-4-(5-{7-methyl-7-[(2R)-2-methylpyrrolidin-1-yl]-6,7,8,9-tetrahydro-5H-benzo[7]annulen-2-yl}-1H-pyrazolo[3,4-b]pyridin-3-yl)phenyl]propan-2-ol] | < 100
C[C@H]1CCCN1C1(C)CCc2ccc(-c3cnc4[nH]nc(-c5ccc(C(C)(C)O)c(Cl)c5)c4c3)cc2CC1 (stereo partly drawn) [Example 58, 2-[2-Chloro-4-(5-{7-methyl-7-[(2S)-2-methylpyrrolidin-1-yl]-6,7,8,9-tetrahydro-5H-benzo[7]annulen-2-yl}-1H-pyrazolo[3,4-b]pyridin-3-yl)phenyl]propan-2-ol] | < 100
CC(C)(O)c1ccc(-c2n[nH]c3ncc(-c4cc5c(cn4)CCC(N4CCCC4)CC5)cc23)cc1Cl (centres unmarked) [Example 59, 2-(2-Chloro-4-{5-[7-(pyrrolidin-1-yl)-5H,6H,7H,8H,9H-cyclohepta[c]pyridin-3-yl]-1H-pyrazolo[3,4-b]pyridin-3-yl}phenyl)propan-2-ol] | < 100
CC(C)(O)c1ccc(-c2n[nH]c3ncc(-c4ccc5c(n4)CCC(N4CCCC4)CC5)cc23)cc1Cl (centres unmarked) [Example 60, 2-(2-Chloro-4-{5-[7-(pyrrolidin-1-yl)-5H,6H,7H,8H,9H-cyclohepta[b]pyridin-2-yl]-1H-pyrazolo[3,4-b]pyridin-3-yl}phenyl)propan-2-ol] | 100 to 1000
CC(C)(O)c1ccc(-c2n[nH]c3ncc(-c4ccc5c(c4)CC4CCC(C5)C4N4CCCC4)cc23)cc1Cl (centres unmarked) [Example 61, 2-(2-Chloro-4-{5-[13-(pyrrolidin-1-yl)tricyclo[8.2.1.0^3,8]trideca-3,5,7-trien-5-yl]-1H-pyrazolo[3,4-b]pyridin-3-yl}phenyl)propan-2-ol] | > 1000
C[C@@H]1CCCN1C1CCc2ccc(-c3cnc4[nH]nc(-c5ccc(C6(O)CCC6)c(Cl)c5)c4c3)cc2CC1 (stereo partly drawn) [Example 62, 1-[2-Chloro-4-(5-{7-[(2R)-2-methylpyrrolidin-1-yl]-6,7,8,9-tetrahydro-5H-benzo[7]annulen-2-yl}-1H-pyrazolo[3,4-b]pyridin-3-yl)phenyl]cyclobutan-1-ol] | < 100
C[C@@H]1CCCN1C1CCc2ccc(-c3cnc4[nH]nc(-c5ccc(S(N)(=O)=O)c(Cl)c5)c4c3)cc2CC1 (stereo partly drawn) [Example 94, 2-Chloro-4-(5-(7-((R)-2-methylpyrrolidin-1-yl)-6,7,8,9-tetrahydro-5H-benzo[7]annulen-2-yl)-1H-pyrazolo[3,4-b]pyridin-3-yl)benzenesulfonamide] | < 100
C[C@@H]1CCCN1C1(C)CCc2ccc(-c3cnc4[nH]nc(-c5ccc(S(N)(=O)=O)cc5)c4c3)cc2CC1 (stereo partly drawn) [Example 95, 4-(5-(7-Methyl-7-((R)-2-methylpyrrolidin-1-yl)-6,7,8,9-tetrahydro-5H-benzo[7]annulen-2-yl)-1H-pyrazolo[3,4-b]pyridin-3-yl)benzenesulfonamide] | < 100
CC(C)(O)c1ccc(-c2n[nH]c3ncc(-c4ccc5c(c4)CCC4(CCCN4)CC5)cc23)cc1Cl (centres unmarked) [Example 96, 2-[2-Chloro-4-(5-{5,6,8,9-tetrahydrospiro[benzo[7]annulene-7,2′-pyrrolidin]-3-yl}-1H-pyrazolo[3,4-b]pyridin-3-yl)phenyl]propan-2-ol] | < 100
C[C@@H]1CCCN1C1CCc2ccc(-c3cnc4[nH]nc(-c5ccc(C(C)(C)O)cn5)c4c3)cc2CC1 (stereo partly drawn) [Example 97, 2-[6-(5-{7-[(2R)-2-Methylpyrrolidin-1-yl]-6,7,8,9-tetrahydro-5H-benzo[7]annulen-2-yl}-1H-pyrazolo[3,4-b]pyridin-3-yl)pyridin-3-yl]propan-2-ol] | < 100
C[C@@H]1CCCN1C1(C)CCc2ccc(-c3cnc4[nH]nc(-c5cnc(C(C)(C)O)c(Cl)c5)c4c3)cc2CC1 (stereo partly drawn) [Example 98, 2-[3-Chloro-5-(5-{7-methyl-7-[(2R)-2-methylpyrrolidin-1-yl]-6,7,8,9-tetrahydro-5H-benzo[7]annulen-2-yl}-1H-pyrazolo[3,4-b]pyridin-3-yl)pyridin-2-yl]propan-2-ol] | < 100
C[C@@H]1CCCN1C1(C)CCc2ccc(-c3cnc4[nH]nc(-c5ccc(C(=O)N[C@@H]6CCOC6)cc5)c4c3)cc2CC1 (stereo partly drawn) [Example 99, 4-(5-{7-Methyl-7-[(2R)-2-methylpyrrolidin-1-yl]-6,7,8,9-tetrahydro-5H-benzo[7]annulen-2-yl}-1H-pyrazolo[3,4-b]pyridin-3-yl)-N-[(3R)-oxolan-3-yl]benzamide] | < 100
